Assay results as given in patent US12139481B2, “Compositions comprising macrocycle derivatives incorporating bridged macrocycles and methods of producing and using same” (Southwestern Oklahoma State University, priority 2015, dated 2024).

Tests used:
[1] = tested on: Cryptococcus neoformans ATCC 90113; assay: Antimicrobial microdilution assay against Cryptococcus neoformans (modified CLSI/NCCLS, optical density); type: cell-based; details: for X more potent than Amphotericin B: C. neoformans, ratio of molar IC50 to Amphotericin B; for C. neoformans IC50 / IC50: in vitro, C. neoformans ATCC 90113; for IC50: read-out: C. neoformans IC50 (mol/L)
Summary of the method: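 Broth microdilution (modified CLSI) in RPMI pH 6.0, samples serially diluted in 20% DMSO/saline and tested in duplicate, growth followed by OD630 before and after incubation. MFC is the lowest concentration giving no growth when 5 μL from clear wells is plated on agar.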

[2] = tested on: L. donovani promastigotes; assay: Antileishmanial Alamar Blue assay on promastigotes; type: cell-based, Leishmania donovani; details: for X more potent than Pentamidine: L. donovani, ratio of molar IC50 to Pentamidine; for L. donovani IC50 / IC50: promastigotes, 48 hours, Alamar Blue; for IC50: read-out: L. donavani IC50
Method: Methods: The compounds were screened in vitro against the promastigote forms of the leishmania parasites employing the Alamar Blue assay as discussed below.
Antileishmanial activity of the compounds was tested in vitro against a culture of L. donovani promastigotes, grown in RPMI 1640 medium supplemented with 10% fetal calf serum (FCS, Gibco Chem. Co., Grand Island, NY) at 26° C. A 3-day-old culture was diluted to 5×10^5 promastigotes/mL. Drug dilutions (50-3.1 μg/mL) were prepared directly in cell suspension in 96-well plates. Plates were incubated at 26° C. for 48 hours, and growth of leishmania promastigotes was determined by Alamar Blue assay. Standard fluorescence was measured on a FLUOstar® Galaxy plate reader (BMG Lab Technologies, Ortenberg, Germany) at an excitation wavelength of 544 nm and emission wavelength of 590 nm. Pentamidine and amphotericin B were used as the standard antileishmanial agents. Percent growth was calculated and plotted versus test concentration for computing the IC50 values.

CC(=O)[O-].CC(=O)[O-].CC(=O)[O-].CC(=O)[O-].O=[N+]([O-])c1ccc(CC2CNCCN(Cc3ccc(CN4CCCN5CCN(CCCNCC4)CC5)cc3)CCCN3CCN(CC3)C2)cc1.[Zn+2].[Zn+2] (centres unmarked) [SJA235, [Zn2(bis-SB-C-Ar-NO2)(OAc)4]]
X more potent than Amphotericin B [1]: 0.13 | C. neoformans IC50 [1]: 1.930 µg/mL | X more potent than Pentamidine [2]: 0.16 | L. donovani IC50 [2]: 34.77 µg/mL

c1ccc(CN2CCCNCCN(Cc3ccccc3)CCCNCC2)cc1 [BME04, Bn2Cyclam]
X more potent than Amphotericin B [1]: 0.01 | C. neoformans IC50 [1]: 12.160 µg/mL | IC50 [1]: 31.9 µM | X more potent than Pentamidine [2]: 0.77 | L. donovani IC50 [2]: 2.63 µg/mL | IC50 [2]: 6.91 µM

[Cl][Mn-2]([Cl])([Cl])[Cl].[Cl][Mn-2]([Cl])([Cl])[Cl].[Mn+2].[Mn+2].c1cc(CN2CCCN3CCNCCCN(CC3)CC2)ccc1CN1CCCN2CCNCCCN(CC2)CC1 [TJH412, [Mn2(H2-p-CB-cyclams)][MnCl4]2]
X more potent than Amphotericin B [1]: 0.13 | C. neoformans IC50 [1]: 1.990 µg/mL | IC50 [1]: 1.88 µM | X more potent than Pentamidine [2]: 0.17 | L. donovani IC50 [2]: 33.37 µg/mL | IC50 [2]: 31.5 µM

[Ni3(tris-CB-Cyclams)(OAc)3][PF6]3•2.5H2O [BNS23]
X more potent than Amphotericin B [1]: 0.03 | C. neoformans IC50 [1]: 12.110 µg/mL | IC50 [1]: 7.26 µM | X more potent than Pentamidine [2]: 0.28 | L. donovani IC50 [2]: 31.63 µg/mL | IC50 [2]: 19 µM

CC(=O)[O-].F[P-](F)(F)(F)(F)F.[Zn+2].c1ccc(CN2CCCNCCN(Cc3ccccc3)CCCNCC2)cc1 [SLK07B, [Zn(Bn2Cyclam)(OAc)]PF6]
X more potent than Amphotericin B [1]: 0.01 | C. neoformans IC50 [1]: 19.840 µg/mL | X more potent than Pentamidine [2]: 1.16 | L. donovani IC50 [2]: 2.97 µg/mL

O.[Cl-].[Cl-].[Mn+2].c1ccc(CN2CCCNCCN(Cc3ccccc3)CCCNCC2)cc1 [TJH397A, Mn(Bn2Cyclam)Cl2•H2O]
X more potent than Amphotericin B [1]: 0.01 | C. neoformans IC50 [1]: 16.870 µg/mL | IC50 [1]: 32.2 µM | X more potent than Pentamidine [2]: 1.21 | L. donovani IC50 [2]: 2.31 µg/mL | IC50 [2]: 4.41 µM

p-SB-cyclens HCl salt [OB24B]
X more potent than Amphotericin B [1]: 0.31 | C. neoformans IC50 [1]: 0.670 µg/mL | IC50 [1]: 0.776 µM | X more potent than Pentamidine [2]: 0.14 | L. donovani IC50 [2]: 32.40 µg/mL | IC50 [2]: 37.5 µM
